Laboratory results reported in PubChem BioAssay AID2060901 (Molecular Pharmacology Branch, DTP, NCI, 2025).

Tested on: 422866-222-R5-J1-PDC complex spheroids viability
Test: Anticancer human tumor 422866-222-R5-J1-PDC patient-derived pancreatic adenocarcinoma cell line growth inhibition [RAS]
Conditions: for IC50: curve of first compound; for viability, T/C: stronger effect = lower value
Outline: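 Tumour cells grown as complex spheroids with HUVEC endothelial cells and mesenchymal stem cells, treated with RAS pathway inhibitor combinations. Each agent spans half-log steps from near clinical Cmax, or 10 microM where Cmax is unknown.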

[1] = second compound 0.000949 µM, first compound 0.0316 µM
[2] = second compound 0.000949 µM, first compound 0.1 µM
[3] = second compound 0.000949 µM, first compound 0.316 µM
[4] = second compound 0.000949 µM, first compound 1 µM
[5] = second compound 0.003 µM, first compound 0.0316 µM
[6] = second compound 0.003 µM, first compound 0.1 µM
[7] = second compound 0.003 µM, first compound 0.316 µM
[8] = second compound 0.003 µM, first compound 1 µM
[9] = second compound 0.00949 µM, first compound 0.0316 µM
[10] = second compound 0.00949 µM, first compound 0.1 µM
[11] = second compound 0.00949 µM, first compound 0.316 µM
[12] = second compound 0.00949 µM, first compound 1 µM
[13] = second compound 0.03 µM, first compound 0.0316 µM
[14] = second compound 0.03 µM, first compound 0.1 µM
[15] = second compound 0.03 µM, first compound 0.316 µM
[16] = second compound 0.03 µM, first compound 1 µM
[17] = second compound 0.0949 µM, first compound 0.0316 µM
[18] = second compound 0.0949 µM, first compound 0.1 µM
[19] = second compound 0.0949 µM, first compound 0.316 µM
[20] = second compound 0.0949 µM, first compound 1 µM
[21] = second compound 0.3 µM, first compound 0.0316 µM
[22] = second compound 0.3 µM, first compound 0.1 µM
[23] = second compound 0.3 µM, first compound 0.316 µM
[24] = second compound 0.3 µM, first compound 1 µM
[25] = second compound 0.000949 µM, first compound 3.16 µM
[26] = second compound 0.000949 µM, first compound 10 µM
[27] = second compound 0.003 µM, first compound 3.16 µM
[28] = second compound 0.003 µM, first compound 10 µM
[29] = second compound 0.00949 µM, first compound 3.16 µM
[30] = second compound 0.00949 µM, first compound 10 µM
[31] = second compound 0.03 µM, first compound 3.16 µM
[32] = second compound 0.03 µM, first compound 10 µM
[33] = second compound 0.0949 µM, first compound 3.16 µM
[34] = second compound 0.0949 µM, first compound 10 µM
[35] = second compound 0.3 µM, first compound 3.16 µM
[36] = second compound 0.3 µM, first compound 10 µM
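Note: spheroids exposed to compounds for 7 days.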
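Throughout, for viability, T/C: 100% = DMSO vehicle control viability.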

SMILES: CCN1CCN(Cc2ccc(Nc3ncc(F)c(-c4cc(F)c5nc(C)n(C(C)C)c5c4)n3)nc2)CC1 + CCn1c(-c2cccnc2C(C)OC)c2c3cc(ccc31)N1CCOC(CC(NC(=O)C(C(C)C)N(C)C(=O)C3(F)CCN(C(=O)C#CC(C)(C)N(C)C)CC3)C(=O)N3CCCC(N3)C(=O)OCC(C)(C)C2)C1
- IC50 (second compound 0.000949 µM): < 3.16 nM
- IC50 (second compound 0.003 µM): < 3.16 nM
- IC50 (second compound 0.00949 µM): < 3.16 nM
- IC50 (second compound 0.03 µM): < 3.16 nM
- IC50 (second compound 0.0949 µM): < 3.16 nM
- IC50 (second compound 0.3 µM): < 3.16 nM
- viability, T/C (second compound 0.000949 µM, first compound 0.00316 µM): 30.8%
- viability, T/C (second compound 0.000949 µM, first compound 0.01 µM): 26.9%
- viability, T/C [1]: 27.2%
- viability, T/C [2]: 25.8%
- viability, T/C [3]: 30%
- viability, T/C [4]: 39%
- viability, T/C (second compound 0.003 µM, first compound 0.00316 µM): 23.8%
- viability, T/C (second compound 0.003 µM, first compound 0.01 µM): 24.9%
- viability, T/C [5]: 23.7%
- viability, T/C [6]: 20.3%
- viability, T/C [7]: 26.3%
- viability, T/C [8]: 37.5%
- viability, T/C (second compound 0.00949 µM, first compound 0.00316 µM): 25%
- viability, T/C (second compound 0.00949 µM, first compound 0.01 µM): 21.9%
- viability, T/C [9]: 20%
- viability, T/C [10]: 21.5%
- viability, T/C [11]: 25.3%
- viability, T/C [12]: 37.5%
- viability, T/C (second compound 0.03 µM, first compound 0.00316 µM): 20.6%
- viability, T/C (second compound 0.03 µM, first compound 0.01 µM): 19.9%
- viability, T/C [13]: 16.8%
- viability, T/C [14]: 19.1%
- viability, T/C [15]: 26.7%
- viability, T/C [16]: 40.3%
- viability, T/C (second compound 0.0949 µM, first compound 0.00316 µM): 18.5%
- viability, T/C (second compound 0.0949 µM, first compound 0.01 µM): 21.1%
- viability, T/C [17]: 19.7%
- viability, T/C [18]: 18.6%
- viability, T/C [19]: 27.5%
- viability, T/C [20]: 37.2%
- viability, T/C (second compound 0.3 µM, first compound 0.00316 µM): 19.9%
- viability, T/C (second compound 0.3 µM, first compound 0.01 µM): 18.8%
- viability, T/C [21]: 18.8%
- viability, T/C [22]: 17.1%
- viability, T/C [23]: 24%
- viability, T/C [24]: 34.9%

SMILES: C[C@@H](NC(=O)c1ncnc(N)c1Cl)c1ncc(C(=O)Nc2cc(C(F)(F)F)c(Cl)cn2)s1 + CCn1c(-c2cccnc2C(C)OC)c2c3cc(ccc31)N1CCOC(CC(NC(=O)C(C(C)C)N(C)C(=O)C3(F)CCN(C(=O)C#CC(C)(C)N(C)C)CC3)C(=O)N3CCCC(N3)C(=O)OCC(C)(C)C2)C1
- IC50 (second compound 0.000949 µM): < 31.6 nM
- IC50 (second compound 0.003 µM): < 31.6 nM
- IC50 (second compound 0.00949 µM): < 31.6 nM
- IC50 (second compound 0.03 µM): < 31.6 nM
- IC50 (second compound 0.0949 µM): < 31.6 nM
- IC50 (second compound 0.3 µM): < 31.6 nM
- viability, T/C [1]: 32%
- viability, T/C [2]: 30.9%
- viability, T/C [3]: 30.3%
- viability, T/C [4]: 32.5%
- viability, T/C [25]: 29%
- viability, T/C [26]: 37%
- viability, T/C [5]: 25.3%
- viability, T/C [6]: 24%
- viability, T/C [7]: 28.5%
- viability, T/C [8]: 25.6%
- viability, T/C [27]: 25.5%
- viability, T/C [28]: 26.3%
- viability, T/C [9]: 26.9%
- viability, T/C [10]: 23.2%
- viability, T/C [11]: 23.7%
- viability, T/C [12]: 22.2%
- viability, T/C [29]: 24.6%
- viability, T/C [30]: 23.6%
- viability, T/C [13]: 24.7%
- viability, T/C [14]: 19.7%
- viability, T/C [15]: 22.7%
- viability, T/C [16]: 21.7%
- viability, T/C [31]: 25.2%
- viability, T/C [32]: 21%
- viability, T/C [17]: 17.8%
- viability, T/C [18]: 18.4%
- viability, T/C [19]: 21.8%
- viability, T/C [20]: 20.2%
- viability, T/C [33]: 20.7%
- viability, T/C [34]: 21.7%
- viability, T/C [21]: 18%
- viability, T/C [22]: 17.8%
- viability, T/C [23]: 21.5%
- viability, T/C [24]: 20%
- viability, T/C [35]: 21.7%
- viability, T/C [36]: 26.1%

SMILES: Cc1nc(N2CCC3(CC2)COC(C)C3N)c(CO)nc1Sc1ccnc(N)c1Cl (stereo unspecified) + CCn1c(-c2cccnc2C(C)OC)c2c3cc(ccc31)N1CCOC(CC(NC(=O)C(C(C)C)N(C)C(=O)C3(F)CCN(C(=O)C#CC(C)(C)N(C)C)CC3)C(=O)N3CCCC(N3)C(=O)OCC(C)(C)C2)C1
- IC50 (second compound 0.000949 µM): < 31.6 nM
- IC50 (second compound 0.003 µM): < 31.6 nM
- IC50 (second compound 0.00949 µM): < 31.6 nM
- IC50 (second compound 0.03 µM): < 31.6 nM
- IC50 (second compound 0.0949 µM): < 31.6 nM
- IC50 (second compound 0.3 µM): < 31.6 nM
- viability, T/C [1]: 23.6%
- viability, T/C [2]: 22.8%
- viability, T/C [3]: 17.9%
- viability, T/C [4]: 17.6%
- viability, T/C [25]: 16.4%
- viability, T/C [26]: 17.5%
- viability, T/C [5]: 20.9%
- viability, T/C [6]: 18.5%
- viability, T/C [7]: 17.1%
- viability, T/C [8]: 17.9%
- viability, T/C [27]: 15.9%
- viability, T/C [28]: 23.2%
- viability, T/C [9]: 20%
- viability, T/C [10]: 16.3%
- viability, T/C [11]: 15.8%
- viability, T/C [12]: 14.1%
- viability, T/C [29]: 16.4%
- viability, T/C [30]: 13.6%
- viability, T/C [13]: 20.8%
- viability, T/C [14]: 15.6%
- viability, T/C [15]: 12.8%
- viability, T/C [16]: 14.9%
- viability, T/C [31]: 13.5%
- viability, T/C [32]: 13.8%
- viability, T/C [17]: 15.6%
- viability, T/C [18]: 13.4%
- viability, T/C [19]: 13.9%
- viability, T/C [20]: 11.9%
- viability, T/C [33]: 15.6%
- viability, T/C [34]: 14.2%
- viability, T/C [21]: 17.5%
- viability, T/C [22]: 13.9%
- viability, T/C [23]: 14.9%
- viability, T/C [24]: 12.5%
- viability, T/C [35]: 17.3%
- viability, T/C [36]: 18.8%
